According to publication PMC9487510, “A Novel Oral GyrB/ParE Dual Binding Inhibitor Effective against Multidrug-Resistant Neisseria gonorrhoeae and Other High-Threat Pathogens” (Antimicrobial Agents and Chemotherapy, 2022):
≈ marks a conversion by molar mass, not a printed value. Read-outs that look alike come from different tables or passages of the source.

Columns and labels:
MRSA [1] = assay: MIC, in vitro susceptibility testing (CLSI); format: cell-based, Staphylococcus aureus; settings: Staphylococcus aureus, MRSA; for MIC: read-out: MIC
[2] = tested on: E. coli, Pseudomonas aeruginosa, Klebsiella pneumoniae, Acinetobacter baumannii, Francisella tularensis, Yersinia pestis; assay: organism not typed; format: cell-based
Neisseria = format: cell-based, N. gonorrhoeae; settings: at 1× MIC; resistance not observed; data not shown
[3] = Kinetic aqueous solubility; format: physicochemical; settings: aqueous medium (not further specified)
B. anthracis = assay: microbe, parasite or virus in culture; format: cell-based; settings: for MIC: Bacillus anthracis
Serum protein binding = format: in vitro ADME
MRSA [4] = format: cell-based, S. aureus; settings: at 1× MIC; resistance not observed; data not shown

## CNc1cc(F)cc2c1[nH]c1nc(Oc3cnc(C)nc3)nc(N3CCC4(CC3)CO[C@@H](CO)C4)c12 [JSF-2414]
MRSA [1]; strain 2 13 53
  MIC: 0.062 µg/mL (≈ 0.126 µM)
MRSA [1]; strain 2 13 54
  MIC: 0.062 µg/mL (≈ 0.126 µM)
MRSA [1]; strain 2 13 55
  MIC: 0.062 µg/mL (≈ 0.126 µM)
MRSA [1]; strain 2 13 56
  MIC: 0.062 µg/mL (≈ 0.126 µM)
MRSA [1]; strain 2 13 57
  MIC: 0.016 µg/mL (≈ 0.0324 µM)
MRSA [1]; strain 2 13 58
  MIC: 0.031 µg/mL (≈ 0.0628 µM)
MRSA [1]; strain 2 35 90
  MIC: 0.016 µg/mL (≈ 0.0324 µM)
MRSA [1]; strain 2 36 04
  MIC: 0.031 µg/mL (≈ 0.0628 µM)
MRSA [1]; strain 2 36 17
  MIC: 0.031 µg/mL (≈ 0.0628 µM)
MRSA [1]; strain 2 36 31
  MIC: 0.031 µg/mL (≈ 0.0628 µM)
MRSA [1]; strain 2 66 36
  MIC: 0.016 µg/mL (≈ 0.0324 µM)
MRSA [1]; strain 2 66 41
  MIC: 0.016 µg/mL (≈ 0.0324 µM)
MRSA [1]; strain 2 78 41
  MIC: 0.062 µg/mL (≈ 0.126 µM)
MRSA [1]; strain 2 78 62
  MIC: 0.031 µg/mL (≈ 0.0628 µM)
MRSA [1]; strain 2 78 66
  MIC: 0.031 µg/mL (≈ 0.0628 µM)
MRSA [1]; strain 2 78 96
  MIC: 0.031 µg/mL (≈ 0.0628 µM)
MRSA [1]; strain 2 79 17
  MIC: 0.062 µg/mL (≈ 0.126 µM)
MRSA [1]; strain 2 79 22
  MIC: 0.031 µg/mL (≈ 0.0628 µM)
MRSA [1]; strain 2 79 25
  MIC: 0.031 µg/mL (≈ 0.0628 µM)
MRSA [1]; strain 2 79 29
  MIC: 0.016 µg/mL (≈ 0.0324 µM)
MRSA [1]; strain 2 79 33
  MIC: 0.031 µg/mL (≈ 0.0628 µM)
MRSA [1]; strain 2 79 65
  MIC: 0.062 µg/mL (≈ 0.126 µM)
MRSA [1]; strain 2 79 67 (first listing)
  MIC: 0.031 µg/mL (≈ 0.0628 µM)
MRSA [1]; strain 2 79 67 (second listing)
  MIC: 0.031 µg/mL (≈ 0.0628 µM)
MRSA [1]; strain 2 80 36
  MIC: 0.062 µg/mL (≈ 0.126 µM)
MRSA [1]; strain 2 80 46
  MIC: 0.031 µg/mL (≈ 0.0628 µM)
MRSA [1]; strain 2 80 48
  MIC: 0.031 µg/mL (≈ 0.0628 µM)
MRSA [1]; strain 2 80 62
  MIC: 0.031 µg/mL (≈ 0.0628 µM)
MRSA [1]; strain 2 80 67
  MIC: 0.062 µg/mL (≈ 0.126 µM)
MRSA [1]; strain 2 81 54
  MIC: 0.031 µg/mL (≈ 0.0628 µM)
MRSA [1]; strain 2 85 12
  MIC: 0.016 µg/mL (≈ 0.0324 µM)
MRSA [1]; strain 2 85 13
  MIC: 0.008 µg/mL (≈ 0.0162 µM)
MRSA [1]; strain 2 85 14
  MIC: 0.031 µg/mL (≈ 0.0628 µM)
MRSA [1]; strain 2 85 32
  MIC: 0.062 µg/mL (≈ 0.126 µM)
MRSA [1]; strain 2 87 54
  MIC: 0.031 µg/mL (≈ 0.0628 µM)
MRSA [1]; strain 2 87 55
  MIC: 0.031 µg/mL (≈ 0.0628 µM)
MRSA [1]; strain 2 87 77
  MIC: 0.016 µg/mL (≈ 0.0324 µM)
MRSA [1]; strain 2 88 47
  MIC: 0.016 µg/mL (≈ 0.0324 µM)
MRSA [1]; strain 2 88 71
  MIC: 0.016 µg/mL (≈ 0.0324 µM)
MRSA [1]; strain 2 88 83
  MIC: 0.008 µg/mL (≈ 0.0162 µM)
MRSA [1]; strain 2 88 84
  MIC: 0.004 µg/mL (≈ 0.0081 µM)
MRSA [1]; strain 2 89 13
  MIC: 0.016 µg/mL (≈ 0.0324 µM)
MRSA [1]; strain 2 89 17
  MIC: 0.008 µg/mL (≈ 0.0162 µM)
MRSA [1]; strain 2 90 62
  MIC: 0.016 µg/mL (≈ 0.0324 µM)
MRSA [1]; strain 2 90 86
  MIC: 0.016 µg/mL (≈ 0.0324 µM)
MRSA [1]; strain 2 90 98
  MIC: 0.031 µg/mL (≈ 0.0628 µM)
MRSA [1]; strain 2 91 55
  MIC: 0.031 µg/mL (≈ 0.0628 µM)
MRSA [1]; strain 2 91 79
  MIC: 0.016 µg/mL (≈ 0.0324 µM)
MRSA [1]; strain 2 91 84
  MIC: 0.031 µg/mL (≈ 0.0628 µM)
MRSA [1]; strain 2 93 06
  MIC: 0.062 µg/mL (≈ 0.126 µM)
MRSA [1]; strain 2 93 24
  MIC: 0.031 µg/mL (≈ 0.0628 µM)
MRSA [1]; strain 2 93 30
  MIC: 0.031 µg/mL (≈ 0.0628 µM)
MRSA [1]; strain 2 95 78
  MIC: 0.031 µg/mL (≈ 0.0628 µM)
MRSA [1]; strain 2 96 95
  MIC: 0.031 µg/mL (≈ 0.0628 µM)
MRSA [1]; strain 2 97 09
  MIC: 0.016 µg/mL (≈ 0.0324 µM)
MRSA [1]; strain 3 03 39
  MIC: 0.016 µg/mL (≈ 0.0324 µM)
MRSA [1]; strain 3 65 31
  MIC: 0.016 µg/mL (≈ 0.0324 µM)
MRSA [1]; strain 3 65 39
  MIC: 0.016 µg/mL (≈ 0.0324 µM)
MRSA [1]; strain 3 80 43
  MIC: 0.002 µg/mL (≈ 0.00405 µM)
MRSA [1]; strain 3 80 68
  MIC: 0.008 µg/mL (≈ 0.0162 µM)
MRSA [1]; strain USA400Padm
  MIC: 0.062 µg/mL (≈ 0.126 µM)
MRSA [1]; 101 strains
  MIC50: 0.031 µg/mL (≈ 0.0628 µM)
  MIC90: 0.062 µg/mL (≈ 0.126 µM)
[2]
  MIC: > 0.5 µg/mL
Neisseria
  spontaneous resistance frequency: < 7.5 × 10^−4
[3]
  solubility kinetic: 0.576 µM (≈ 0.284 µg/mL)
B. anthracis; strain Ames
  MIC: 0.049 µg/mL (≈ 0.0993 µM)
B. anthracis; strain Vollum V1B
  MIC: 0.098 µg/mL (≈ 0.199 µM)
B. anthracis; N = 2
  MIC range: 0.049 to 0.098 µg/mL
Serum protein binding
  fraction unbound: 0.012
MRSA [4]
  spontaneous resistance frequency: < 5.0 × 10^−9
